According to the Kinase Knowledgebase extract (Sharma et al. 2016):

The compounds below were run against EGFR (human) (UniProt P00533). Conditions: a431.
EGFR (human), sequence (P00533 whole entry, looked up): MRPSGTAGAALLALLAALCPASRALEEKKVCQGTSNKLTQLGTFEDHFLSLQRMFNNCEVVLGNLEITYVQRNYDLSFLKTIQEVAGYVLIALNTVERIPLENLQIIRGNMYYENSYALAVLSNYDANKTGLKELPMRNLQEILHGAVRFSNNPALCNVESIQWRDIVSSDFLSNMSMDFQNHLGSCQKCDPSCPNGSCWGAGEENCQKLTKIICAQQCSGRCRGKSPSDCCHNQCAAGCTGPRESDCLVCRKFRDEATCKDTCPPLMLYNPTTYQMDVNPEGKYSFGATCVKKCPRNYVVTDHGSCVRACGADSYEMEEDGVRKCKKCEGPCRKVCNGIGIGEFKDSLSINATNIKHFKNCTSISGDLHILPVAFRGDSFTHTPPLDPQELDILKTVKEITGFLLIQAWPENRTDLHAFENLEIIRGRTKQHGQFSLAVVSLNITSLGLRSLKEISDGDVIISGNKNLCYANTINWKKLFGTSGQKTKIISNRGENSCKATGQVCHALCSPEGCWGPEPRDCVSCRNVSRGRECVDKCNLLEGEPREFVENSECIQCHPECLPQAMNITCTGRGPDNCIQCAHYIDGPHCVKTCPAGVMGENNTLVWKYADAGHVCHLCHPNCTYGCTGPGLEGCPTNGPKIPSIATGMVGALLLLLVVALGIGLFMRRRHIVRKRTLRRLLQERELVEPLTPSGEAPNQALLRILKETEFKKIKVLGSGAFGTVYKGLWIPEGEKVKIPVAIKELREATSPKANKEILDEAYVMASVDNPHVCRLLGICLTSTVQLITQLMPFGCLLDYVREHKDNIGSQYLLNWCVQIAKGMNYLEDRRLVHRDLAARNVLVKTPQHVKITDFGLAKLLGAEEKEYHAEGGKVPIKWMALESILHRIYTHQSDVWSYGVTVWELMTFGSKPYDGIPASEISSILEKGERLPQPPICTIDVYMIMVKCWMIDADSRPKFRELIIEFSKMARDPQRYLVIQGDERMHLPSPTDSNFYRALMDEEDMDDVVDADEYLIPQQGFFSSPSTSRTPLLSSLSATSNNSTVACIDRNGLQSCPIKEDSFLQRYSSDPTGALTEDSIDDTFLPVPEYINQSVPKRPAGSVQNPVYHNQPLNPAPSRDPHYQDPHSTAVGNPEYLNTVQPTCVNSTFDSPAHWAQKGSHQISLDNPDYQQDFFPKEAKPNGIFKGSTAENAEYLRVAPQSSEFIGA
With C=CC(=O)NCCOc1cc2c(Nc3ccc(F)c(Cl)c3F)ncnc2cc1OC the IC50 was 699 nM.
C=CC(=O)N1CC[C@H](Oc2cc3c(Nc4ccc(F)c(Cl)c4F)ncnc3cc2OC)C[C@H]1C(=O)NCCCO showed an IC50 of 20 nM.
In the case of C=C(CN1CCN(C)CC1)C(=O)N1CC(Oc2cc3c(Nc4ccc(F)c(Cl)c4F)ncnc3cc2OC)C1, the IC50 is reported as 1 nM.
Compound C=C(CN(C)C)C(=O)N1CCC(Oc2cc3c(Nc4ccc(F)c(Cl)c4F)ncnc3cc2OC)CC1 has an IC50 of 2.7 nM.
C=CC(=O)N1CC[C@H](Oc2cc3c(Nc4ccc(F)c(Cl)c4F)ncnc3cc2OC)C[C@H]1C(=O)NCC gave an IC50 of 8 nM.
COc1cc2ncnc(Nc3cccc(Cl)c3F)c2cc1O[C@H]1CCN(C(=O)/C=C/CN(C)C)C1 gave an IC50 of 8 nM.
With COc1cc2ncnc(Nc3ccc(F)c(Cl)c3F)c2cc1OC1CCN(C(=O)/C=C\C(=O)O)CC1 the IC50 was 41 nM.
C=CC(=O)N1CC[C@H](Oc2cc3c(Nc4ccc5c(cnn5Cc5cccc(F)c5)c4)ncnc3cc2OC)C1 gave an IC50 of 19 nM.
Work on C=CC(=O)N1CCC(Oc2cc3c(Nc4cccc(C(F)(F)F)c4)ncnc3cc2OC)CC1 yielded an IC50 of 58 nM.
CC#CC(=O)N1CCC(Oc2cc3c(Nc4ccc(F)c(Cl)c4F)ncnc3cc2OC)CC1 showed an IC50 of 190 nM.
Work on C=CC(=O)N1CCC(Oc2cc3c(Nc4cccc(SC)c4)ncnc3cc2OC)CC1 yielded an IC50 of 305 nM.
With C#Cc1cccc(Nc2ncnc3cc(OC)c(OC4CCN(C(=O)C=C)CC4)cc23)c1 the IC50 was 52 nM.
C=CC(=O)N1CCC(Oc2cc3c(Nc4cccc(Cl)c4C)ncnc3cc2OC)CC1 was tested, and the IC50 was 9 nM.
In the case of C=CC(=O)N1CCC(Oc2cc3c(Nc4ccc5c(c4)CCC5)ncnc3cc2OC)CC1, the IC50 is reported as 29 nM.
COc1cc2ncnc(Nc3ccc(Cl)c(Cl)c3F)c2cc1OC1CCN(C(=O)/C=C\Cl)CC1 showed an IC50 of 14 nM.
With C=CC(=O)N1CCC(Oc2cc3c(Nc4ccc(O)cc4Cl)ncnc3cc2OC)CC1 the IC50 was 176 nM.
For COc1cc2ncnc(Nc3ccc(F)c(Cl)c3F)c2cc1OC1CCN(C(=O)C=C(C)C)CC1, the IC50 was 38 nM.
With C=CC(=O)N1CC(Oc2cc3c(Nc4ccc(F)c(Cl)c4F)ncnc3cc2OCCOC)C1 the IC50 was 883 nM.
Compound C=CC(=O)N1CC[C@H](Oc2cc3c(Nc4ccc(Br)cc4F)ncnc3cc2OC)C1 has an IC50 of 15 nM.
C=CC(=O)N1CC[C@H](Oc2cc3c(Nc4ccc(F)c(Cl)c4F)ncnc3cc2OC)C[C@H]1C(=O)NO showed an IC50 of 10 nM.
Compound C=CC(=O)N1CC[C@H](Oc2cc3c(Nc4ccc(F)c(Cl)c4F)ncnc3cc2OC)C[C@H]1C(=O)OC has an IC50 of 5 nM.
COc1cc2ncnc(Nc3ccc(F)c(Cl)c3F)c2cc1OC1CN(C(=O)/C=C/Cl)C1 was tested, and the IC50 was 44 nM.
COc1cc2ncnc(Nc3ccc(F)c(Cl)c3F)c2cc1O[C@H]1CCN(C(=O)/C=C/CN(C)C)C1 showed an IC50 of 4 nM.
In the case of C=C(CN(C)C)C(=O)N1CCC(Oc2cc3c(Nc4ccc(Cl)c(Cl)c4F)ncnc3cc2OC)CC1, the IC50 is reported as 4 nM.
C=CC(=O)N1CCC(Oc2cc3c(Nc4ccc(Cl)c(C#N)c4)ncnc3cc2OC)CC1 showed an IC50 of 35 nM.
In the case of C=C(NC(C)=O)C(=O)N1CCC(Oc2cc3c(Nc4ccc(Cl)c(Cl)c4F)ncnc3cc2OC)CC1, the IC50 is reported as 50 nM.
For C=CC(=O)N1CC[C@H](Oc2cc3c(Nc4ccc(F)c(Cl)c4F)ncnc3cc2OC)C[C@H]1C(=O)NCCC, the IC50 was 12 nM.
Compound C=CC(=O)N1CCC(Oc2cc3c(Nc4ccc(C)c(C)c4)ncnc3cc2OC)CC1 has an IC50 of 19 nM.
In the case of COC(=O)/C=C\C(=O)N1CC(Oc2cc3c(Nc4cccc(Cl)c4F)ncnc3cc2OC)C1, the IC50 is reported as 1 nM.
Work on C=CC(=O)N1CC[C@@H](Oc2cc3c(Nc4ccc(F)c(Cl)c4F)ncnc3cc2OC)C[C@@H]1C(=O)O yielded an IC50 of 979 nM.
With C=CC(=O)N1CC[C@@H](Oc2cc3c(Nc4ccc(Br)cc4F)ncnc3cc2OC)C[C@@H]1C(N)=O the IC50 was 1.1 nM.
In the case of C=CC(=O)N1CCC(Oc2cc3c(Nc4ccc(Cl)c(O)c4)ncnc3cc2OC)CC1, the IC50 is reported as 105 nM.
In the case of C=CC(=O)N1CC[C@@H](Oc2cc3c(Nc4ccc(F)c(Cl)c4F)ncnc3cc2OC)C1, the IC50 is reported as 222 nM.
Work on C=CC(=O)N1CCC(Oc2cc3c(Nc4ccc(O)c(Cl)c4)ncnc3cc2OC)CC1 yielded an IC50 of 109 nM.
C=CC(=O)N1CCC(Oc2cc3c(Nc4cccc(N(C)C)c4)ncnc3cc2OC)CC1 was tested, and the IC50 was 142 nM.
C=CC(=O)N1CC[C@H](Oc2ccc3ncnc(Nc4ccc(OCc5cccc(F)c5)c(Cl)c4)c3c2)C1 gave an IC50 of 15 nM.
For CCN(CC)C/C=C/C(=O)N1CC[C@H](Oc2cc3c(Nc4ccc(F)c(Cl)c4F)ncnc3cc2OC)C1, the IC50 was 28 nM.
C=CC(=O)N1CC(Oc2cc3c(Nc4cccc(C#N)c4)ncnc3cc2OC)C1 was tested, and the IC50 was 17 nM.
For COC(=O)/C=C\C(=O)N1CCC(Oc2cc3c(Nc4ccc(F)c(Cl)c4F)ncnc3cc2OC)CC1, the IC50 was 9 nM.
COc1cc2ncnc(Nc3ccc(Cl)c(Cl)c3F)c2cc1OC1CCN(C(=O)/C=C\C(=O)O)CC1 showed an IC50 of 322 nM.
CNC(=O)/C=C/C(=O)N1CCC(Oc2cc3c(Nc4ccc(F)c(Cl)c4F)ncnc3cc2OC)CC1 showed an IC50 of 48 nM.
C=CC(=O)N1CCC(Oc2cc3c(Nc4ccc(F)c(C)c4)ncnc3cc2OC)CC1 was tested, and the IC50 was 8 nM.
Compound C=CC(=O)N1CCC(Oc2cc3c(Nc4cccc(C#N)c4)ncnc3cc2OC)CC1 has an IC50 of 3.7 nM.
C=CC(=O)N1CC(Oc2cc3c(Nc4ccc(F)c(Cl)c4F)ncnc3cc2O)C1 was tested, and the IC50 was 381 nM.
Compound C=CC(=O)N1CCC(Oc2cc3c(Nc4cccc(Cl)c4OC)ncnc3cc2OC)CC1 has an IC50 of 3 nM.
For C=C(CO)C(=O)N1CCC(Oc2cc3c(Nc4ccc(Cl)c(Cl)c4F)ncnc3cc2OC)CC1, the IC50 was 44 nM.
With C=CC(=O)N1CCC(Oc2cc3c(Nc4ccc(Cl)cc4)ncnc3cc2OC)CC1 the IC50 was 4.6 nM.
COc1cc2ncnc(Nc3cccc(Cl)c3F)c2cc1OC1CCN(C(=O)/C=C/CN(C)C)CC1 was tested, and the IC50 was 76 nM.
For C=CC(=O)N1CCC(Oc2cc3c(Nc4cccc(S)c4)ncnc3cc2OC)CC1, the IC50 was 300 nM.
Work on COc1cc2ncnc(Nc3ccc(F)c(Cl)c3F)c2cc1O[C@H]1CCN(C(=O)C#CCN(C)C)C1 yielded an IC50 of 33 nM.
Compound C=CC(=O)N1CCC(Oc2cc3c(Nc4cccc([N+](=O)[O-])c4)ncnc3cc2OC)CC1 has an IC50 of 11 nM.
COc1cc2ncnc(Nc3ccc(F)c(Cl)c3F)c2cc1O[C@H]1CCN(C(=O)/C=C/CN2CCOCC2)C1 gave an IC50 of 85 nM.
In the case of COc1cc2ncnc(Nc3ccc(F)c(Cl)c3F)c2cc1OC1CN(C(=O)/C=C/CN(C)C)C1, the IC50 is reported as 36 nM.
Work on COc1cc2ncnc(Nc3ccc(Cl)c(Cl)c3F)c2cc1OC1CCN(C(=O)/C=C/Cl)CC1 yielded an IC50 of 39 nM.
In the case of COc1cc2ncnc(Nc3ccc(F)c(Cl)c3F)c2cc1OC1CCN(C(=O)/C=C\CN(C)C)CC1, the IC50 is reported as 6 nM.
In the case of C=C(CN1CCCCC1)C(=O)N1CC(Oc2cc3c(Nc4cccc(Cl)c4F)ncnc3cc2OC)C1, the IC50 is reported as 2.4 nM.
Compound C=CC(=O)N1CCC(Oc2cc3c(Nc4ccc(F)c(Cl)c4F)ncnc3cc2OCCCN2CCOCC2)CC1 has an IC50 of 4 nM.
COc1cc2ncnc(Nc3ccc(F)c(Cl)c3F)c2cc1O[C@H]1CCN(C(=O)/C=C/CN2CCCC2)C1 showed an IC50 of 8 nM.
Work on C=CC(=O)N1CCC(Oc2cc3c(Nc4ccc(F)c(F)c4F)ncnc3cc2OC)CC1 yielded an IC50 of 43 nM.
In the case of CN(C)C/C=C/C(=O)N1CC[C@H](Oc2ccc3ncnc(Nc4ccc(F)c(Cl)c4F)c3c2)C1, the IC50 is reported as 25 nM.
COc1cc2ncnc(Nc3ccc(F)c(Cl)c3F)c2cc1O[C@H]1CCN(C(=O)C#CCCN2CCN(C)CC2)C1 gave an IC50 of 53 nM.
Compound C=CC(=O)N1CCC(Oc2cc3c(Nc4ccc(C(C)C)cc4)ncnc3cc2OC)CC1 has an IC50 of 23 nM.
For C=CC(=O)N1CC[C@H](Oc2cc3c(Nc4ccc(OCc5ccccn5)c(Cl)c4)ncnc3cc2OC)C1, the IC50 was 14 nM.
In the case of C/C=C/C(=O)N1CC[C@H](Oc2cc3c(Nc4ccc(F)c(Cl)c4F)ncnc3cc2OC)C1, the IC50 is reported as 85 nM.
For C=CC(=O)N1CCC(Oc2cc3c(Nc4ccc(O)c(F)c4)ncnc3cc2OC)CC1, the IC50 was 129 nM.
Work on C=CC(=O)N1CCC(Oc2cc3c(Nc4ccc(Br)c(F)c4)ncnc3cc2OC)CC1 yielded an IC50 of 7 nM.
Work on C=C(CN1CCOCC1)C(=O)N1CCC(Oc2cc3c(Nc4ccc(F)c(Cl)c4F)ncnc3cc2OC)CC1 yielded an IC50 of 10 nM.
With COc1cc2ncnc(Nc3cccc(Cl)c3F)c2cc1OC1CN(C(=O)/C=C/CN(C)C)C1 the IC50 was 9 nM.
C=CC(=O)N1CCC(Oc2cc3c(Nc4cccc(CCl)c4)ncnc3cc2OC)CC1 showed an IC50 of 26 nM.
In the case of C=CC(=O)N1CCC(Oc2cc3c(Nc4ccccc4Cl)ncnc3cc2OC)CC1, the IC50 is reported as 65 nM.
Compound C=CC(=O)Nc1cccc(Nc2ncnc3cc(OC)c(OC4CCN(C(=O)C=C)CC4)cc23)c1 has an IC50 of 400 nM.
C=C(C)C(=O)N1CC(Oc2cc3c(Nc4ccc(F)c(Cl)c4F)ncnc3cc2OC)C1 gave an IC50 of 29 nM.
In the case of CNC(=O)/C=C/C(=O)N1CC(Oc2cc3c(Nc4ccc(F)c(Cl)c4F)ncnc3cc2OC)C1, the IC50 is reported as 41 nM.
In the case of C=CC(=O)N1CCC(Oc2cc3c(NCc4cccc(Cl)c4)ncnc3cc2OC)CC1, the IC50 is reported as 61 nM.
In the case of C=CC(=O)N1CCC(Oc2cc3c(Nc4ccc(Cl)c(C)c4)ncnc3cc2OC)CC1, the IC50 is reported as 93 nM.
With C=CC(=O)N1CCC(Oc2cc3c(Nc4cccc(C(F)(F)F)c4F)ncnc3cc2OC)CC1 the IC50 was 11 nM.
For COc1cc2ncnc(Nc3ccc(F)c(Cl)c3F)c2cc1OCCNC(=O)/C=C/CN(C)C, the IC50 was 18 nM.
Compound CC#CC(=O)N1CC[C@H](Oc2cc3c(Nc4ccc(F)c(Cl)c4F)ncnc3cc2OC)C1 has an IC50 of 37 nM.
COc1cc2ncnc(Nc3ccc(F)c(Cl)c3F)c2cc1OC1CCN(C(=O)/C=C/C(=O)NO)CC1 showed an IC50 of 187 nM.
COc1cc2ncnc(Nc3ccc(F)c(Cl)c3F)c2cc1OC1CN(C(=O)/C=C\CN(C)C)C1 gave an IC50 of 15 nM.
C=CC(=O)N1CCC(Oc2cc3c(N[C@H](C)c4ccccc4)ncnc3cc2OC)CC1 gave an IC50 of 514 nM.
Compound C=C(CN1CCCCC1)C(=O)N1CC(Oc2cc3c(Nc4ccc(F)c(Cl)c4F)ncnc3cc2OC)C1 has an IC50 of 9.1 nM.
C=CC(=O)N1CCCC(Oc2cc3c(Nc4ccc(F)c(Cl)c4F)ncnc3cc2OC)C1 (stereo unspecified) was tested, and the IC50 was 6 nM.
C=CC(=O)N1CCC(Oc2cc3c(Nc4ccc(OCc5cccc(F)c5)c(Cl)c4)ncnc3cc2OC)CC1 was tested, and the IC50 was 10 nM.
COc1cc2ncnc(Nc3ccc(Cl)c(Cl)c3F)c2cc1OC1CCN(C(=O)/C=C/C(=O)O)CC1 showed an IC50 of 516 nM.
C=CC(=O)N1CCC(Oc2cc3c(Nc4ccc(F)c(C#N)c4)ncnc3cc2OC)CC1 was tested, and the IC50 was 8 nM.
For C=CC(=O)N1CC[C@H](Oc2cc3c(Nc4cccc(Cl)c4F)ncnc3cc2OC)C1, the IC50 was 531 nM.
Work on COC(=O)/C=C\C(=O)N1CCC(Oc2cc3c(Nc4ccc(Cl)c(Cl)c4F)ncnc3cc2OC)CC1 yielded an IC50 of 8 nM.
C=CC(=O)N1CCC(Oc2cc3c(Nc4cc(Cl)c(O)c(Cl)c4)ncnc3cc2OC)CC1 gave an IC50 of 179 nM.
Work on C=CC(=O)N1CC[C@H](Oc2cc3c(Nc4ccc(F)c(Cl)c4F)ncnc3cc2OC)C[C@H]1C(=O)NC yielded an IC50 of 2.2 nM.
For C=CC(=O)N1CC[C@H](Oc2cc3c(Nc4ccc(F)c(Cl)c4F)ncnc3cc2OC)C[C@H]1C(=O)NC(C)C, the IC50 was 7.5 nM.
